Measured values taken from the NIST ThermoML archive (doi:10.1021/je700443d).
“And” between values parts separate entries of the source, which are not always exact repeats. Equal values may be shown once. Numbers after ± are expanded uncertainties.

Settings: Liquid; for vapor or sublimation pressure: Closed cell (Static) method; for mass density: determined from pressure vs temperature measurement to find liquid-full point for a closed cell

CO[Si](OC)(OC)OC [silicon tetramethoxide]
Settings | mass density | vapor or sublimation pressure
334.15 K | 990 ± 60 kg/m3 | 30 ± 15 kPa
335.15 K | – | 30 ± 15 kPa
336.15 K | – | 30 ± 15 kPa
337.15 K | – | 30 ± 15 kPa
338.15 K | – | 30 ± 15 kPa
339.15 K | – | 30 ± 15 kPa
341.15 K | – | 30 ± 15 kPa
342.15 K | – | 30 ± 17 kPa
343.15 K | – | 30 ± 13 kPa
344.15 K | – | 30 ± 17 kPa
345.15 K | – | 40 ± 17 kPa
347.15 K | – | 40 ± 14 kPa
348.15 K | 940 ± 60 kg/m3 | 40 ± 20 kPa
349.15 K | – | 40 ± 20 kPa
351.15 K | – | 40 ± 20 kPa
352.15 K | – | 40 ± 20 kPa
353.15 K | – | 40 ± 20 kPa
355.15 K | – | 40 ± 17 kPa
356.15 K | – | 40 ± 17 kPa
357.15 K | – | 50 ± 13 kPa
358.15 K | – | 50 ± 17 kPa
359.15 K | – | 50 ± 17 kPa
361.15 K | – | 50 ± 25 kPa
362.15 K | – | 50 ± 25 kPa
363.15 K | – | 50 ± 14 kPa
364.15 K | – | 50 ± 16 kPa
365.15 K | 920 ± 60 kg/m3 | 50 ± 17 kPa
366.15 K | – | 60 ± 18 kPa
368.15 K | – | 60 ± 18 kPa
369.15 K | – | 60 ± 31 kPa
370.15 K | – | 60 ± 15 kPa
371.15 K | – | 60 ± 18 kPa
372.15 K | – | 60 ± 18 kPa
373.1 K | – | 70 ± 15 kPa
374.15 K | – | 70 ± 18 kPa
375.15 K | – | 70 ± 34 kPa
377.15 K | – | 70 ± 18 kPa
378.15 K | – | 80 ± 18 kPa
379.15 K | – | 80 ± 29 kPa
380.15 K | – | 80 ± 29 kPa
381.15 K | – | 80 ± 18 kPa
382.15 K | – | 90 ± 19 kPa
383.15 K | 900 ± 50 kg/m3 | –
384.15 K | – | 90 ± 35 kPa
385.15 K | – | 90 ± 19 kPa
386.15 K | – | 90 ± 15 kPa
387.15 K | – | 100 ± 19 kPa
388.15 K | – | 100 ± 35 kPa
389.15 K | 880 ± 50 kg/m3 | –
390.15 K | – | 100 ± 19 kPa
391.15 K | – | 110 ± 35 kPa
392.15 K | – | 110 ± 30 kPa
393.15 K | – | 110 ± 45 kPa
394.15 K | – | 120 ± 35 kPa
395.15 K | – | 120 ± 35 kPa
397.15 K | – | 130 ± 36 kPa
398.15 K | – | 130 ± 36 kPa
399.15 K | – | 130 ± 40 kPa
400.15 K | – | 140 ± 36 kPa
401.15 K | – | 140 ± 36 kPa
403.15 K | – | 150 ± 37 kPa
404.15 K | – | 150 ± 52 kPa
405.15 K | – | 160 ± 46 kPa
406.15 K | 850 ± 50 kg/m3 | 160 ± 52 kPa
407.15 K | – | 170 ± 45 kPa
408.15 K | – | 170 ± 37 kPa
409.15 K | – | 180 ± 53 kPa
411.15 K | – | 180 ± 53 kPa
412.15 K | – | 190 ± 38 kPa
413.15 K | – | 190 ± 42 kPa
414.15 K | – | 200 ± 54 kPa
415.15 K | 840 ± 50 kg/m3 | 200 ± 54 kPa
417.15 K | – | 210 ± 54 kPa
418.15 K | – | 220 ± 55 kPa
419.15 K | – | 220 ± 61 kPa
420.15 K | – | 230 ± 61 kPa
421.15 K | – | 230 ± 55 kPa
422.15 K | – | 240 ± 71 kPa
424.15 K | – | 250 ± 71 kPa
425.15 K | – | 260 ± 71 kPa
426.15 K | – | 260 ± 62 kPa
427.15 K | – | 270 ± 72 kPa
428.15 K | – | 280 ± 63 kPa
429.15 K | – | 280 ± 72 kPa
430.15 K | – | 290 ± 73 kPa
432.15 K | – | 300 ± 73 kPa
433.15 K | – | 310 ± 73 kPa
434.15 K | 800 ± 50 kg/m3 | 320 ± 78 kPa
435.15 K | – | 320 ± 78 kPa
436.15 K | – | 330 ± 74 kPa
437.15 K | – | 340 ± 75 kPa
439.15 K | – | 350 ± 75 kPa
440.15 K | 800 ± 50 kg/m3 | 360 ± 76 kPa
441.15 K | – | 360 ± 79 kPa
442.15 K | – | 370 ± 91 kPa
443.15 K | – | 380 ± 81 kPa
444.15 K | – | 390 ± 92 kPa
445.15 K | – | 400 ± 78 kPa
447.15 K | – | 410 ± 78 kPa
448.15 K | – | 410 ± 78 kPa
449.15 K | – | 420 ± 82 kPa
450.15 K | – | 430 ± 94 kPa
451.15 K | – | 440 ± 110 kPa
452.15 K | – | 450 ± 96 kPa
453.15 K | – | 460 ± 95 kPa
454.15 K | – | 470 ± 95 kPa
456.15 K | – | 480 ± 96 kPa
457.15 K | – | 490 ± 96 kPa
458.15 K | – | 500 ± 98 kPa
459.15 K | – | 510 ± 130 kPa
460.15 K | – | 520 ± 130 kPa
461.15 K | – | 530 ± 110 kPa
462.15 K | – | 550 ± 110 kPa
463.15 K | 750 ± 50 kg/m3 and 770 ± 50 kg/m3 | 560 ± 110 kPa
465.15 K | – | 570 ± 120 kPa
466.15 K | – | 580 ± 120 kPa
467.15 K | – | 590 ± 120 kPa
468.15 K | – | 610 ± 150 kPa
469.15 K | – | 620 ± 150 kPa
470.15 K | – | 630 ± 130 kPa
471.15 K | – | 650 ± 120 kPa
472.15 K | – | 660 ± 130 kPa
474.15 K | – | 670 ± 130 kPa
475.15 K | – | 690 ± 140 kPa
476.15 K | – | 700 ± 140 kPa
477.15 K | – | 720 ± 170 kPa
478.15 K | – | 730 ± 170 kPa
479.15 K | – | 750 ± 170 kPa
480.15 K | 710 ± 40 kg/m3 | 760 ± 170 kPa
481.15 K | – | 780 ± 150 kPa
482.15 K | – | 790 ± 140 kPa
483.15 K | 730 ± 50 kg/m3 | 810 ± 160 kPa
485.15 K | – | 820 ± 160 kPa
486.15 K | – | 840 ± 160 kPa
487.15 K | – | 860 ± 160 kPa
488.15 K | – | 870 ± 190 kPa
489.15 K | – | 890 ± 190 kPa
490.15 K | – | 910 ± 190 kPa
491.15 K | – | 920 ± 200 kPa
492.15 K | – | 940 ± 210 kPa
493.15 K | – | 960 ± 170 kPa
494.15 K | – | 980 ± 180 kPa
495.15 K | – | 1000 ± 180 kPa
497.15 K | – | 1010 ± 180 kPa
498.15 K | – | 1030 ± 180 kPa
499.15 K | – | 1050 ± 190 kPa
500.15 K | – | 1070 ± 230 kPa
501.15 K | – | 1090 ± 230 kPa
502.15 K | 690 ± 40 kg/m3 | 1110 ± 210 kPa
503.15 K | – | 1130 ± 220 kPa
504.15 K | – | 1150 ± 220 kPa
505.15 K | – | 1160 ± 220 kPa
506.15 K | – | 1180 ± 230 kPa
507.15 K | – | 1200 ± 230 kPa
508.15 K | – | 1220 ± 210 kPa
509.15 K | – | 1250 ± 210 kPa
510.15 K | – | 1270 ± 210 kPa
512.15 K | – | 1280 ± 200 kPa
513.15 K | – | 1300 ± 200 kPa
514.15 K | – | 1320 ± 200 kPa and 1340 ± 210 kPa
516.15 K | – | 1360 ± 240 kPa
517.15 K | – | 1380 ± 240 kPa
518.15 K | – | 1400 ± 240 kPa
519.15 K | 650 ± 40 kg/m3 | 1420 ± 240 kPa
520.15 K | – | 1440 ± 250 kPa
521.15 K | – | 1460 ± 250 kPa
522.15 K | – | 1480 ± 250 kPa
532.15 K | 610 ± 40 kg/m3 | –
